Laboratory results taken from PMC10064330, “Reversible Dual-Covalent Molecular Locking of the 14-3-3/ERRγ Protein–Protein Interaction as a Molecular Glue Drug Discovery Approach” (Journal of the American Chemical Society, 2023).

Target: T1, 14-3-3γ/ERRγ complex (Homo sapiens, UniProt P61981+P62508)
T1 construct: made in house; host or cells: E. coli NiCo21 (DE3)
Test: Peptide washout experiment on immobilized 14-3-3γ/ERRγ complex
Assay type: binding
Details: 100 μM compound; for total recovered ERRγ peptide: 5 washing steps of 20 min, normalized to recovery without 14-3-3γ; for initial peptide recovery: first washing step (DMSO 63%)
Procedure: Next, a washout experiment was performed to understand ternary 14-3-3/ERRγ/molecular lock complex dissociation. Fluorescein-labeled ERRγ was incubated overnight with biotin-functionalized 14-3-3γ in the presence of either DMSO, disulfide 1, aldehyde 3, or molecular lock 5 and subsequently immobilized on streptavidin-functionalized magnetic beads (Figure S17a). The beads were then washed five times in a peptide and compound-free buffer. During each wash step, the beads were incubated in the buffer for 20 min to allow dissociation of the ERRγ peptide from the immobilized 14-3-3γ. The fluorescence was then measured for all samples before capture, after capture, and after each washing step (Figure S17b), and the amount of peptide recovery was calculated. […] The analysis of individual washing steps provided further insight into the ternary complex dissociation kinetics (Figure 3e).
Figure S17. Washout experiment. (a) Schematic representation of washout experiment. Biotinylated 14-3-3γ (5 µM), fluorescein-labelled ERRγ 9-mer peptide (200 nM) and dual-reactive molecular lock 5 were preincubated overnight to form a ternary ‘crosslinked’ complex. This complex was immobilized on streptavidin-functionalized magnetic beads. Complex-functionalized beads were subsequently washed […] with 50 µL buffer. For each wash step, the complex was incubated 20 minutes in the buffer before removal to allow dissociation of the ERRγ peptide from the ternary complex. From samples before and after capturing, and from all wash fractions, we have measured the fluorescence to determine the amount of ERR γ peptide in each fraction. (b) Fluorescence signal of fluorescein-labelled ERRγ peptide after washout experiment. Samples are present for FAM - ERRγ incubated with and without biotinylated 14 -3-3γ and in presence of either DMSO (negative control), disulfide compound 1, aldehyde compound 3 or dual-reactive compound 5. Fluorescence was measured from samples before and after capturing and from all wash fractions. (c) % recovery of FAM -ERRγ in each wash fraction of washout experiment. Percentage is obtained by dividing the fluorescence of each sample (see panel a) by the fluorescence signal obtained before capturing (input sample = 100% , see panel a). […]
steps in presence of DMSO, or 100 µM compound 1, 3 or 5. Values are calculated by dividing the fluorescence signal (from panel a) of samples with 14-3-3 with the fluorescence signal of samples without 14-3-3, to correct for non-specific binding of peptide to the magnetic beads. […]
temperatures are based on three independent experiments from which the average and standard deviations were determined using excel. […]

T1 sequence (P61981 whole entry, other chains not shown): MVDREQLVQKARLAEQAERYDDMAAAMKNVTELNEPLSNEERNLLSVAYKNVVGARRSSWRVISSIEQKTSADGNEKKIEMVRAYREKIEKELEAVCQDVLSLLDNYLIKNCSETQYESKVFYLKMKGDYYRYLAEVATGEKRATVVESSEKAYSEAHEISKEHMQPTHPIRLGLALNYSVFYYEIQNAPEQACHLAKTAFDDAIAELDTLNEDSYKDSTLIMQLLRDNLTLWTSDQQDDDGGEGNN

Structure (SMILES) | total recovered ERRγ peptide | initial peptide recovery
CN(C)CCSSCCN(C)C(=O)c1cccc(F)c1 [compound 1, reference compound] | 58% | 42%
CN(C)CCSSCCN(C)C(=O)c1ccc(C=O)c(F)c1 [compound 5] | 44% | 36%
